These results are taken from PMC10952342 (2023).

Each structure is given as a SMILES string.

Assay [1] deals with HTelo (DNA, G4) AGGGTTAGGGTTAGGGTTAGGG
The assay is described as follows: emission titration (580 nm). The following applies: lithium cacodylate pH 7.3.

The subject of assay [2] is HTG4 (DNA, G4) TTGGGTTAGGGTTAGGGTTAGGGA
The assay is described as follows: emission titration (580 nm). As to conditions: K+ 100 mM, lithium cacodylate pH 7.3.

Assay [3] has as its system c-Myc (DNA, G4) TGAGGGTGGGTAGGGTGGGTAA
The assay is described as follows: emission titration (580 nm). As to conditions: K+ 100 mM, lithium cacodylate pH 7.3.

Assay [4] concerns HTelo (DNA, G4) AGGGTTAGGGTTAGGGTTAGGG
The assay is described as follows: CD melting (295 nm). As to conditions: Na+ 100 mM; 10 mM lithium cacodylate; 5 μM DNA, 10 μM compound.

In assay [5] the test system is c-Myc (DNA, G4) TGAGGGTGGGTAGGGTGGGTAA
The assay is described as follows: CD melting (265 nm). The following applies: K+ 1 mM; 10 mM lithium cacodylate; 5 μM DNA, 10 μM compound.

Regarding `OCC[S-].[Pt+2].[c-]1cc(OCCN2CCCCC2)ccc1-c1cccc(-c2ccccn2)n1`, the Ka in assay [1] (K+ 100 mM) is recorded as 4.85 ± 0.66 x 10^5 M^-1; in assay [1] (Na+ 100 mM), 4.5 ± 1.54 x 10^5 M^-1; in assay [2], 16.35 ± 2.30 x 10^5 M^-1; in assay [3] it was 15.04 ± 1.18 x 10^5 M^-1.
What is called ΔTm is the change in melting temperature against a reference sample. Take `[Cl-].[Pt+2].[c-]1cc(OCCN2CCCCC2)ccc1-c1cccc(-c2ccccn2)n1`: the Ka is given as 11.77 ± 1.69 x 10^5 M^-1 in assay [1] (K+ 100 mM, 1 μM complex); 5.06 ± 0.59 x 10^5 M^-1 in assay [1] (Na+ 100 mM, 1 μM complex); 19.18 ± 3.60 x 10^5 M^-1 in assay [2] (1 μM complex); 21.65 ± 0.64 x 10^5 M^-1 in assay [3] (1 μM complex). Further, the thermal shift (ΔTm) in assay [4] came to 2.8 °C; in assay [5], 28.3 °C.
For `OCC[S-].[Pt+2].[c-]1cc(OCCN2CCOCC2)ccc1-c1cccc(-c2ccccn2)n1`, the Ka in assay [1] (K+ 100 mM) was 3.92 ± 0.13 x 10^5 M^-1; in assay [1] (Na+ 100 mM) it was 1.46 ± 0.05 x 10^5 M^-1; in assay [2] it was 4.45 ± 0.58 x 10^5 M^-1; in assay [3], 6.09 ± 0.91 x 10^5 M^-1.
`CN(C)CCOc1c[c-]c(-c2cccc(-c3ccccn3)n2)cc1.OCC[S-].[Pt+2]`: the Ka in assay [1] (K+ 100 mM) is given as 12.5 ± 0.30 x 10^5 M^-1; in assay [1] (Na+ 100 mM), 3.5 ± 1.01 x 10^5 M^-1; in assay [2] it was 22.04 ± 9.23 x 10^5 M^-1; in assay [3], 14.43 ± 7.18 x 10^5 M^-1.
On to `CN(C)CCOc1c[c-]c(-c2cccc(-c3ccccn3)n2)cc1.[Cl-].[Pt+2]`, for which the Ka in assay [1] (K+ 100 mM) is 10.45 ± 1.13 x 10^5 M^-1; in assay [1] (Na+ 100 mM) it was 6.22 ± 0.34 x 10^5 M^-1; in assay [2], 14.89 ± 4.37 x 10^5 M^-1; in assay [3] it was 17.61 ± 2.87 x 10^5 M^-1. Also, the thermal shift (ΔTm) in assay [4] was determined as 3.6 °C; in assay [5] it was 30 °C.
On to `[Cl-].[Pt+2].[c-]1cc(OCCN2CCOCC2)ccc1-c1cccc(-c2ccccn2)n1`, for which the Ka in assay [1] (K+ 100 mM) was 2.95 ± 0.34 x 10^5 M^-1; in assay [1] (Na+ 100 mM), 1.47 ± 0.08 x 10^5 M^-1; in assay [2], 3.55 ± 0.92 x 10^5 M^-1; in assay [3], 13.68 ± 1.56 x 10^5 M^-1.
